The assay relates to BDF1 mice, L1210 terephthalanilide-resistant leukemia ip, survival T/C. The experiment in a line: NCI In Vivo Anticancer Drug Screen. Data for tumor model L1210 Leukemia resistant to A Terephthalanilide; NSC 38280 (intraperitoneal) in B6D2F1 (BDF1) mice. The following applies: endpoint: mean survival time, higher = longer survival. How it is done:
The antitumor activity of compounds was measured in mice bearing transplantable tumors. Survival or tumor size were measured and the results are expressed as the measurement made in the treated group (T) divided by the measurement made in the vehicle treated control group (C). The tumor model used in this assay is L1210 Leukemia resistant to A Terephthalanilide; NSC 38280 (intraperitoneal) in B6D2F1 (BDF1) mice

[1] abbreviates: dose: 5.0 mg/kg/injection, schedule: Q01DX010 (ip), vehicle: saline.
The mark [2] stands for this setting: dose: 125.0 mg/kg/injection, schedule: Q01DX Z (ip), vehicle: carboxymethylcellulose (CMC).
Setting [3] is: dose: 20.0 mg/kg/injection, schedule: Q01DX010 (ip), vehicle: saline.

Several values for one entry are separate records, joined by “and”; a condition that tells them apart may be missing. Equal values may be shown once. Toxic doses and inconclusive results are not listed. Starred links: 1 amine or outer side, 2 acyl side, 3 side chain; linkers in the order of their positions; H or OH if unused. Positions of bridges follow the written chain, without caps; N, C: chain ends. Non-standard residues stand in square brackets, D forms with d. Residues, ends and D or L forms follow the SMILES beside them. Chains are numbered I, II in the order given. Actinocin(9to1) = Cc1c2oc3c(C)ccc(C(=O)[*:1])c3nc-2c(C(=O)[*:2])c(N)c1=O; aThr = C[C@H](O)[C@H](N)C(=O)O; NMeV = CN[C@H](C(=O)O)C(C)C; Sar = CNCC(=O)O

As to `C=C1C[C@H]2[C@@H]3C=C(C)C4=CC(=O)CC[C@]4(C)[C@H]3CC[C@]2(C)[C@@]1(OC(C)=O)C(C)=O`, the T/C was 101 % of control (dose: 62.5 mg/kg/injection, schedule: Q01DX010 (sc), vehicle: steriod suspending solution); 93 % of control (dose: 125.0 mg/kg/injection, schedule: Q01DX010 (sc), vehicle: steriod suspending solution); 97 % of control (dose: 250.0 mg/kg/injection, schedule: Q01DX010 (sc), vehicle: steriod suspending solution); 95 % of control (dose: 500.0 mg/kg/injection, schedule: Q01DX010 (sc), vehicle: steriod suspending solution).
Take `O=CN(O)CC(=O)O`: the T/C reads like this: (dose: 125.0 mg/kg/injection, schedule: Q01DX010 (ip), vehicle: saline) 93 % of control; (dose: 125.0 mg/kg/injection, schedule: Q01DX Z (ip), vehicle: saline) 100 % of control; (dose: 250.0 mg/kg/injection, schedule: Q01DX010 (ip), vehicle: saline) 93 % of control; (dose: 250.0 mg/kg/injection, schedule: Q01DX Z (ip), vehicle: saline) 91 % of control; (dose: 375.0 mg/kg/injection, schedule: Q01DX Z (ip), vehicle: saline) 101 % of control; (dose: 500.0 mg/kg/injection, schedule: Q01DX010 (ip), vehicle: saline) 101 % of control. The T/C (dose: 500.0 mg/kg/injection, schedule: Q01DX Z (ip), vehicle: saline) is 97 % of control.
Turning to `NC12CC3CC(CC(C3)C1)C2`, the T/C (dose: 25.0 mg/kg/injection, schedule: Q01DX010 (ip), vehicle: saline) is 108 % of control; the T/C (dose: 50.0 mg/kg/injection, schedule: Q01DX010 (ip), vehicle: saline) was 106 % of control; the T/C (dose: 100.0 mg/kg/injection, schedule: Q01DX010 (ip), vehicle: saline) is 101 % of control.
Regarding `O=C(Nc1ccc(C2=NCCN2)cc1)c1ccc(C(=O)Nc2ccc(C3=NCCN3)cc2)c(Cl)c1`, the T/C is, setting by setting: (dose: 2.0 mg/kg/injection, schedule: Q01DX010 (ip), vehicle: other) 98 % of control and 100 % of control; (dose: 4.0 mg/kg/injection, schedule: Q01DX010 (ip), vehicle: other) 107 % of control and 110 % of control; (dose: 8.0 mg/kg/injection, schedule: Q01DX010 (ip), vehicle: other) 107 % of control and 117 % of control; (dose: 16.0 mg/kg/injection, schedule: Q01DX010 (ip), vehicle: other) 122 % of control and 107 % of control; (dose: 32.0 mg/kg/injection, schedule: Q01DX010 (ip), vehicle: other) 120 % of control and 112 % of control.
Take `Oc1cc(CN(CCCl)CCCl)c(O)cc1CN(CCCl)CCCl`: the T/C was 116 % of control and 120 % of control (dose: 0.63 mg/kg/injection, schedule: Q01DX010 (ip), vehicle: saline); 121 % of control (dose: 1.0 mg/kg/injection, schedule: Q01DX Z (ip), vehicle: carboxymethylcellulose (CMC)); 108 % of control and 113 % of control under setting [1]; 150 % of control (dose: 6.0 mg/kg/injection, schedule: Q01DX Z (ip), vehicle: carboxymethylcellulose (CMC)).
Turning to `CS(=O)(=O)OCCCl`, the T/C was 99 % of control and 108 % of control (dose: 18.8 mg/kg/injection, schedule: Q01DX010 (ip), vehicle: saline); 90 % of control and 103 % of control (dose: 37.5 mg/kg/injection, schedule: Q01DX010 (ip), vehicle: saline); 103 % of control (dose: 44.0 mg/kg/injection, schedule: Q01DX Z (ip), vehicle: saline); 107 % of control and 108 % of control (dose: 75.0 mg/kg/injection, schedule: Q01DX010 (ip), vehicle: saline); 115 % of control (dose: 87.5 mg/kg/injection, schedule: Q01DX Z (ip), vehicle: saline); 89 % of control (dose: 150.0 mg/kg/injection, schedule: Q01DX010 (ip), vehicle: saline). Under “dose: 175.0 mg/kg/injection, schedule: Q01DX Z (ip), vehicle: saline”, the T/C was 119 % of control.
For the molecule `CC(=O)OCC1OC(n2ncc(=O)[nH]c2=O)C(OC(C)=O)C1OC(C)=O` (stereo not drawn), the T/C was 183 % of control under setting [2]; 206 % of control (dose: 250.0 mg/kg/injection, schedule: Q01DX Z (ip), vehicle: carboxymethylcellulose (CMC)); 214 % of control (dose: 375.0 mg/kg/injection, schedule: Q01DX Z (ip), vehicle: carboxymethylcellulose (CMC)); 168 % of control (dose: 500.0 mg/kg/injection, schedule: Q01DX Z (ip), vehicle: carboxymethylcellulose (CMC)).
For the molecule `C[n+]1ccc(NC(=O)c2ccc(NC(=O)c3cccc(C(=O)Nc4ccc(C(=O)Nc5cc[n+](C)cc5)cc4)c3)cc2)cc1`, the T/C by setting is: under setting [1], 87 % of control; under setting [3], 116 % of control.
Turning to `O=C(Nc1ccc(C2=NCCN2)cc1)c1ccc(C(=O)Nc2ccc(C3=NCCN3)cc2)c(F)c1`, the T/C is 100 % of control and 101 % of control (dose: 22.5 mg/kg/injection, schedule: Q01DX010 (ip), vehicle: saline); 101 % of control and 102 % of control (dose: 45.0 mg/kg/injection, schedule: Q01DX010 (ip), vehicle: saline); 103 % of control and 106 % of control (dose: 90.0 mg/kg/injection, schedule: Q01DX010 (ip), vehicle: saline); 100 % of control (dose: 180.0 mg/kg/injection, schedule: Q01DX010 (ip), vehicle: saline).
In the case of `Cc1c2oc3c(C)ccc(C(=O)N[C@@H]4C(=O)N[C@H](C(C)C)C(=O)N5CCC[C@H]5C(=O)N(C)CC(=O)N(C)[C@@H](C(C)C)C(=O)O[C@H]4C)c3nc-2c(C(=O)N[C@@H]2C(=O)N[C@H](C(C)C)C(=O)N3CCC[C@H]3C(=O)N(C)CC(=O)N(C)[C@@H](C(C)C)C(=O)O[C@H]2C)c(N)c1=O` (I: [aThr][dV]P[Sar][NMeV] / II: [aThr][dV]P[Sar][NMeV]; ester I:1-I:C, II:1-II:C; linker I:N-II:N via Actinocin(9to1)), the T/C is 117 % of control and 118 % of control (dose: 12.5 micrograms/kg/injection, schedule: Q01DX010 (ip), vehicle: other); 121 % of control and 118 % of control (dose: 25.0 micrograms/kg/injection, schedule: Q01DX010 (ip), vehicle: other); 124 % of control and 117 % of control (dose: 50.0 micrograms/kg/injection, schedule: Q01DX010 (ip), vehicle: other); 95 % of control and 103 % of control (dose: 100.0 micrograms/kg/injection, schedule: Q01DX010 (ip), vehicle: other).
As for `CC1CCOS(=O)O1` (stereo not drawn), the T/C by setting is: (dose: 10.0 mg/kg/injection, schedule: Q01DX010 (ip), vehicle: saline) 95 % of control; under setting [3], 86 % of control; (dose: 37.5 mg/kg/injection, schedule: Q01DX Z (ip), vehicle: saline) 112 % of control; (dose: 40.0 mg/kg/injection, schedule: Q01DX010 (ip), vehicle: saline) 87 % of control; (dose: 75.0 mg/kg/injection, schedule: Q01DX Z (ip), vehicle: saline) 120 % of control; (dose: 100.0 mg/kg/injection, schedule: Q01DX Z (ip), vehicle: saline) 103 % of control. The T/C (dose: 150.0 mg/kg/injection, schedule: Q01DX Z (ip), vehicle: saline) is 87 % of control.
In the case of `Nc1nc(SCc2ccccc2)c2[nH]cnc2n1`, the T/C was 92 % of control and 104 % of control (dose: 8.0 mg/kg/injection, schedule: Q01DX010 (ip), vehicle: saline); 104 % of control (dose: 16.0 mg/kg/injection, schedule: Q01DX010 (ip), vehicle: saline); 115 % of control (dose: 32.0 mg/kg/injection, schedule: Q01DX010 (ip), vehicle: saline); 111 % of control (dose: 62.5 mg/kg/injection, schedule: Q01DX Z (ip), vehicle: carboxymethylcellulose (CMC)); 95 % of control and 114 % of control (dose: 64.0 mg/kg/injection, schedule: Q01DX010 (ip), vehicle: saline); 107 % of control under setting [2].
Regarding `NC(Cc1ccc(N(CCCl)CCCl)cc1)C(=O)O` (stereo not drawn), the T/C is 113 % of control (dose: 0.31 mg/kg/injection, schedule: Q01DX Z (ip), vehicle: carboxymethylcellulose (CMC)); 114 % of control (dose: 0.62 mg/kg/injection, schedule: Q01DX Z (ip), vehicle: carboxymethylcellulose (CMC)); 174 % of control (dose: 2.0 mg/kg/injection, schedule: Q01DX Z (ip), vehicle: carboxymethylcellulose (CMC)); 183 % of control (dose: 2.5 mg/kg/injection, schedule: Q01DX010 (ip), vehicle: saline); 162 % of control (dose: 2.5 mg/kg/injection, schedule: Q01DX Z (ip), vehicle: carboxymethylcellulose (CMC)); 184 % of control (dose: 4.0 mg/kg/injection, schedule: Q01DX Z (ip), vehicle: carboxymethylcellulose (CMC)). Besides, the T/C is 166 % of control under setting [1]; 212 % of control (dose: 5.0 mg/kg/injection, schedule: Q01DX Z (ip), vehicle: carboxymethylcellulose (CMC)); 172 % of control (dose: 7.5 mg/kg/injection, schedule: Q01DX Z (ip), vehicle: carboxymethylcellulose (CMC)); 181 % of control (dose: 10.0 mg/kg/injection, schedule: Q01DX Z (ip), vehicle: carboxymethylcellulose (CMC)); 120 % of control (dose: 15.0 mg/kg/injection, schedule: Q01DX Z (ip), vehicle: carboxymethylcellulose (CMC)).

These data come from PubChem BioAssay AID282 (DTP/NCI, 2004).
